# According to PMC10957775, “Integrated chemical characterization, metabolite profiling, and pharmacokinetics analysis of Zhijun Tangshen Decoction by UPLC-Q/TOF-MS” (Frontiers in Pharmacology, 2024):
# Assay: Multi-compound pharmacokinetics of ZJTSD in rat serum, semi-quantitative UPLC-Q/TOF-MS (peak area ratio versus time, non-compartmental)
# Conditions: for pharmacokinetic behavior compared with other prototype compounds and metabolites (in words): non-compartmental analysis; for AUC (in words): peak area ratio versus time
# [1] = male, Sprague-Dawley, rat, serum (hepatic portal vein blood), po, 1 mL/100 g body weight
# [2] = male, Sprague-Dawley, rat, serum (hepatic portal vein blood), po, 1 mL/100 g body weight, t1/2, prototype compounds of ZJTSD absorbed into rat serum, mean±SD, n=3
# [3] = male, Sprague-Dawley, rat, serum (hepatic portal vein blood), po, 1 mL/100 g body weight, t1/2, metabolites of ZJTSD in rat serum, mean±SD, n=3
# [4] = male, Sprague-Dawley, rat, serum (hepatic portal vein blood), po, 1 mL/100 g body weight, elimination half-life (t1/2), rat hepatic portal vein serum after oral ZJTSD, semi-quantitative peak area ratio
# [5] = metabolites of ZJTSD in rat serum, mean±SD, n=3, in h
# [6] = prototype compounds of ZJTSD absorbed into rat serum, mean±SD, n=3, in h
# Experimental: Thirty male Sprague–Dawley rats (200 ± 20 g) were purchased from the Nanjing Qinglongshan Experimental Animal Center (Nanjing, China). […] All rats were divided randomly into two groups: ZJTSD-dosed group (n = 27) and control group (n = 3). The ZJTSD-dosed group was given the ZJTSD solution by gavage (i.g.) at a dosage of 1 mL/100 g body weight of rats, and the control group was given 0.9% normal saline at the same dose, twice a day for a week. After the last administration, the blood was collected from the hepatic portal vein at 15 min, 30 min, 1 h, 2 h, 4 h, 6 h, 8 h, 12 h, and 24 h, and 3 rats were taken at each time point.
# The blood samples of rats were centrifuged at 4,000 rpm for 10 min to obtain the serum. The serum sample (1 mL) was processed with a 3-fold volume using methanol for protein precipitation, with epicoprostanol serving as the internal standard (digoxin and clarithromycin). After vortexing for 3 min, the mixture was centrifuged at 18,000 rpm for 10 min. Subsequently, the supernatant was evaporated at 45°C using a vacuum concentrator. After evaporating the solvent, 150 μL of methanol/water (1:1, v/v) was added, vortexed, sonicated, and then centrifuged at 18,000 rpm for 10 min at 4°C. The resulting supernatant was used for further analysis.
# Liquid chromatographic separation was performed using an AB SCIEX LC™ 2.0 system (AB SCIEX, United States) fitted with an Acquity UPLC BEH C18 column (100 mm × 2.1 mm, 1.7 μm; Ireland). The mobile phases in negative and positive ion modes consisted of 0.1% FA aqueous solution (A) and acetonitrile containing 0.1% FA (B). The program of the elution gradient was set as follows: 0∼5 min, 2%∼35 %B; 5∼7 min, 35%∼50%; 7∼10 min, 50%∼70%; 10∼15 min, 70%∼90 %B; 15∼18 min, 90%∼90 %B; 18∼18.5 min, 90%∼2 %B; and 18.5∼20 min, 2%∼2 %B. The injection volume was 3 µL. The flow rate and the column temperature were set at 0.3 mL/min and 40°C, respectively.
# The mass spectrometry analysis was performed on a SCIEX ZenoTOF™ 7600 system (AB SCIEX, United States), which was calibrated in the high-sensitivity mode for every 10 samples. Spectra were acquired in the TOF/MS-IDA-TOF MS/MS mode with the ESI source operating in positive and negative ion modes. MS parameters were set as follows: ionization source, ESI; spray voltage, 5,500 kV/–4,500 kV; collision energy, 40 V/–40 V; declustering potential, 80 V/–80 V; ion source temperature, 550°C; and scan range, 100–1250 m/z. Data acquisition and processing were performed using SCIEX OS 2.2 and PeakView 2.2.
# A semi-quantitative method was adopted based on the correction peak area versus time ([Wang et al., 2011]; [Lin et al., 2019]). The mean serum time-course profile of pharmacokinetics based on the peak area ratio versus time was plotted using Origin 2018. The kinetic analysis of the peak area ratio (×1,000)–time curve was calculated using Phoenix WinNonlin 8.1 (Phoenix, American) software and illustrated.
SMILES,MRT last [1],Tmax [1],half-life [2],other results
"COC(=O)C1CCC(=O)N1 (stereo not shown) [P33, 5-Oxo-pyrrolidine-2-carboxylic acid methyl ester]",13.9 ± 1.35 h,14 ± 9.17 h,–,–
"C=Cc1ccc(O)c(OC)c1 [P42, 4-Vinyl-2-methoxyphenol]",10.2 ± 0.64 h,10.7 ± 2.31 h,–,–
"CCCCCCCCCCCCCCCCOC[C@@H](O)COP(=O)([O-])OCC[N+](C)(C)C [P44, 1-O-Hexadecyl-sn-glycero-3-phosphocholine]",11.9 ± 0.91 h,0.58 ± 0.38 h,33.1 ± 13.3 h,–
"O=C1c2cccc(O)c2C(=O)c2c(O)cc(CO)cc21 [P17, Aloe-emodin]",5.2 ± 3.03 h,4.17 ± 3.75 h,1.73 h,detection in serum / absorbed form (rat serum after oral ZJTSD): absorbed as prototype compounds
"COc1c(O)c(C)cc2c1C(=O)c1ccc(O)cc1C2=O [P21, 2,6-Dihydroxy-1-methoxy-3-methylanthraquinone]",4.27 ± 0.55 h,2.5 ± 3.04 h,3.45 ± 1.44 h,–
"O=Cc1c[nH]c2ccccc12 [P46, Indole-3-carbaldehyde]",12.7 ± 0.3 h,12.1 ± 11.9 h,–,–
CC1CCC2(C(=O)O)CCC3(C)C(=CCC4C5(C=O)CC(O)C(O)C(C)(C)C5CCC43C)C2C1(C)O (stereo not shown) [M77],–,–,–,half-life [3]: 10.8 ± 4.71 h
"Cc1cc2c(cc1O)C(=O)c1ccccc1C2=O [P11, 2-Methyl-3-hydroxyanthraquinone]",3.23 ± 0.59 h,0.67 ± 0.29 h,4.29 ± 2.71 h,level of exposure in the blood (in words) (rat serum after oral ZJTSD): higher level of exposure; pharmacokinetic behavior compared with other prototype compounds and metabolites (in words) (rat serum after oral ZJTSD): better pharmacokinetic behavior
"COc1cc(-c2coc3cc(O)ccc3c2=O)ccc1O [P10, 7,4'-Dihydroxy-3'-methoxyisoflavone]",10.8 ± 0.72 h,2.08 ± 1.88 h,67.3 ± 4.4 h,–
"Cc1cc(=O)c2c(CC(=O)O)cc(O)cc2o1 [P4, 2-Methyl-5-carboxymethyl-7-hydroxychromone]",5.29 ± 0.3 h,1.67 ± 2.02 h,3.14 ± 0.86 h,–
"C[N+](C)(C)CC(=O)O [P35, Betaine]",10.8 ± 0.64 h,6.67 ± 4.62 h,24.2 ± 14.5 h,–
"CCCCCCCCCCCCCCCCCC(=O)OC[C@@H](O)COP(=O)([O-])OCC[N+](C)(C)C [P45, 1-O-Octadecanoyl-sn-glycero-3-phosphocholine]",9.91 ± 0.56 h,2 h,21.9 ± 6.81 h,MRT [1]: 9.91 h; half-life [4]: 21 h; pharmacokinetic behavior compared with other prototype compounds and metabolites (in words) (rat serum after oral ZJTSD): better pharmacokinetic behavior
O=C(CCc1ccc(O)cc1)c1ccc(O)cc1O [M11],–,–,–,half-life [3]: 7.01 ± 2.29 h
"CSCC[C@H](N)C(=O)O [P25, L-Methionine]",12.5 ± 1.36 h,2.17 ± 3.32 h,–,–
"O=C(O)C=Cc1ccc(O)cc1 [P37, p-Coumaric acid]",3.97 ± 0.59 h,1.58 ± 2.1 h,3.23 ± 0.95 h,level of exposure in the blood (in words) (rat serum after oral ZJTSD): higher level of exposure; pharmacokinetic behavior compared with other prototype compounds and metabolites (in words) (rat serum after oral ZJTSD): better pharmacokinetic behavior
"O=C(O)CC(O)(CC(=O)O)C(=O)O [P40, Citric acid]",9.56 ± 1.76 h,3.33 ± 1.16 h,24.7 ± 23.6 h,MRT [1]: 9.56 h; half-life [4]: 21 h; AUC (in words) (rat serum after oral ZJTSD): largest
Cc1cc(O)c2c(c1)C(=O)c1ccccc1C2=O [M63],–,–,–,half-life [3]: 5.43 ± 2.61 h
"Cc1cc(=O)c2c(C)cc(O)cc2o1 [P1, 2,5-Dimethyl-7-hydroxychromone]",3.43 ± 0.76 h,0.67 ± 0.29 h,2.7 ± 0.14 h,level of exposure in the blood (in words) (rat serum after oral ZJTSD): higher level of exposure; pharmacokinetic behavior compared with other prototype compounds and metabolites (in words) (rat serum after oral ZJTSD): better pharmacokinetic behavior
"O=C(O)[C@@H]1CCCN1 [P26, Proline]",11.1 ± 0.44 h,0.5 h,47.1 ± 35.8 h,–
"N[C@@H](Cc1c[nH]c2ccccc12)C(=O)O [P23, Tryptophan]",12.4 ± 0.14 h,1.08 ± 0.88 h,–,–

SMILES,MRT last [1],Tmax [1],half-life [2],other results
"COc1c(-c2ccccc2)oc2cc(O)cc(O)c2c1=O [P3, 3-Methoxy-5,7-dihydroxyflavone]",4.8 ± 0.38 h,1.83 ± 1.89 h,4.04 ± 1.91 h,–
"COc1cc(C)c2c(=O)cc(C)oc2c1 [P6, 2,5-Dimethyl-7-methoxychromone]",12.1 ± 0.02 h,4.75 ± 4.02 h,–,–
"CC(=O)/C=C/c1ccc(CO)o1 [P51, (E)-4-[5-(Hydroxymethyl)-2-furanyl]-3-butene-2-one]",4.2 ± 0.25 h,4.67 ± 1.16 h,–,–
"COc1c(O)ccc2c1C(=O)c1ccccc1C2=O [P14, 2-Hydroxy-1-methoxyanthraquinone]",4.24 ± 0.57 h,0.67 ± 0.29 h,3.5 ± 2.06 h,level of exposure in the blood (in words) (rat serum after oral ZJTSD): higher level of exposure; pharmacokinetic behavior compared with other prototype compounds and metabolites (in words) (rat serum after oral ZJTSD): better pharmacokinetic behavior
O=CCC(O)(CC(=O)O)C(=O)O (stereo not shown) [M90],–,–,–,"MRT(0→t) [5]: 7.25±1.46; Tmax [5]: 1.08±0.88; t1/2 [5]: 7.50±1.85; Tmax (rat hepatic portal vein serum after oral ZJTSD twice a day for a week, semi-quantitative peak area ratio): ≤ 3.5 h; elimination half-life (t1/2) (rat hepatic portal vein serum after oral ZJTSD, semi-quantitative peak area ratio): > 7.5 h; time to peak (in words) (rat serum after oral ZJTSD): faster time to peak; pharmacokinetic behavior compared with other prototype compounds and metabolites (in words) (rat serum after oral ZJTSD): better pharmacokinetic behavior; AUC (in words) (rat serum after oral ZJTSD): greater"
"O=C1c2ccccc2C(=O)c2cc(CO)c(O)cc21 [P15, 2-Hydroxy-3-hydroxymethylanthraquinone]",4.81 ± 0.31 h,1.67 ± 2.02 h,–,–
OC1COCC1O (stereo not shown) [M87],–,–,–,MRT(0→t) [5]: 9.59±1.35; Tmax [5]: 1.17±0.76; t1/2 [5]: 17.68±16.89
"O=C1CCCn2c(CO)ccc21 [P34, Polygonatine A]",–,–,–,MRT(0→t) [6]: 3.96±0.32; t1/2 [6]: 3.76±1.03
"COc1cc2ccc(=O)oc2cc1O [P38, Scopoletin]",4.36 ± 1.52 h,0.5 h,4.77 ± 1.43 h,–
"O=C(O)c1cc(O)c2c(c1)C(=O)c1cccc(O)c1C2=O [P18, Rhein]",3.55 ± 0.57 h,1.67 ± 2.02 h,4.7 ± 0.9 h,detection in serum / absorbed form (rat serum after oral ZJTSD): absorbed as prototype compounds
"O=C(O)c1ccc(O)cc1 [P41, p-Hydroxybenzoic acid]",9.15 ± 0.95 h,2.75 ± 2.17 h,19.4 ± 2.9 h,pharmacokinetic behavior compared with other prototype compounds and metabolites (in words) (rat serum after oral ZJTSD): better pharmacokinetic behavior
COC(=O)c1ccc(O)cc1 [M89],–,–,–,MRT(0→t) [5]: 5.35±0.92; Tmax [5]: 3.00±1.73
"O=C1CCCCN1 [P47, 2-Piperidone]",11.8 ± 0.21 h,12 h,–,–
"O=C(O)/C=C/c1ccccc1 [P36, Cinnamic acid]",5.15 ± 0.25 h,1.58 ± 2.1 h,25.8 ± 26.4 h,–
"O=c1ccc2cc(O)c(O)cc2o1 [P39, Esculetin]",4.92 ± 0.8 h,0.33 ± 0.14 h,4.4 ± 3.9 h,–
"Cc1cc(O)cc2oc(CC(C)O)cc(=O)c12 (stereo not shown) [P2, 7-Hydroxy-2-(2-hydroxypropyl)-5-methylchromen-4-one]",3.45 ± 0.58 h,0.67 ± 0.29 h,2.17 ± 0.12 h,level of exposure in the blood (in words) (rat serum after oral ZJTSD): higher level of exposure; pharmacokinetic behavior compared with other prototype compounds and metabolites (in words) (rat serum after oral ZJTSD): better pharmacokinetic behavior
O=C(O)/C=C/c1ccc(O)cc1 [M91],–,–,–,MRT(0→t) [5]: 3.97±0.59; Tmax [5]: 1.58±2.10; t1/2 [5]: 3.23±0.95
"CC(=O)Cc1cc(O)cc2oc(C)cc(=O)c12 [P5, 2-Methyl-5-acetonyl-7-hydroxychromone]",4.23 ± 0.55 h,0.67 ± 0.29 h,3.09 ± 0.19 h,–
"N[C@@H](Cc1c[nH]cn1)C(=O)O [P24, Histidine]",9.9 ± 0.35 h,2.75 ± 2.95 h,21.1 ± 10.2 h,–
